From patent publication US20130136794A1, “HETEROARYL (ALKYL) DITHIOCARBAMATE COMPOUNDS, PREPARATION METHODS AND USES THEREOF” (PEKING UNIVERSITY, priority 2010, published 2013) come the findings set out here.

For one series, the system named is HL-60 human leukaemia. Description: Inhibition of tumor cell proliferation at 10 μM, Model A: MTT method. In kind it is cell-based. As to conditions: HL-60, MTT method, read-out: Model A Inhibitory rate (%). An excerpt: (§1) The evaluation of the compounds according to the present invention on the inhibition rate of the proliferation of four different tumor cells, using the routine method for anti-tumor activity tests in the pharmaceutical filed, for example the method described in the following literature: (J. Immuno/Method, 1983, 65, 55).
In general terms: Tetrazolium assays rely on reduction of a dye to a coloured formazan, in cell work by metabolically active cells.

Series [1] deals with BGC-823 human gastric cancer. Description: Inhibition of tumor cell proliferation at 10 μM, Model B: SRB method. The format is cell-based. Particulars: BGC-823, SRB method, read-out: Model B Inhibitory rate (%).
Description: as §1
A general note: In SRB staining, fixed cells bind dye roughly in proportion to their protein.

The subject of series [2] is Bel-7402 human liver cancer. Description: Inhibition of tumor cell proliferation at 10 μM, Model C: SRB method. Particulars: Bel-7402, SRB method, read-out: Model C Inhibitory rate (%). In kind it is cell-based.
Description: as §1

Series [3] has as its system KB human nasopharyngeal cancer. Description: Inhibition of tumor cell proliferation at 10 μM, Model D: SRB method. In kind it is cell-based. Particulars: read-out: Model D Inhibitory rate (%).
Description: as §1

The test system of series [4] is human leukaemia HL-60 cells. The series can be described thus: EC50 on proliferation of HL-60 cells (MTT, 48 h). In kind it is cell-based. Particulars: read-out: HL-60 EC50 (nmol). Here is the method: (§2) EC50 values of the compounds according to the present invention on the proliferation of human leukaemia HL-60 cells and Bel-7402 cells were determined by using the following method, and the results are shown in Table 2.
Testing method for EC50 values on the human leukaemia HL-60 cells: The human leukaemia HL-60 cells were cultured in vitro. The cells were collected after growth to logarithmic phase, and centrifugated at 1000 rpm for 5 min. The supernatant was discarded and the cells were suspended in an appropriate amount of medium. The cell concentration was adjusted to 1.2×10^4/mL. The cells were seeded into 96-well culture plates in 90 μL per well. For each well of the drug treatment groups, 10 μL of medium-diluted drug was added, whereas for the blank control groups, the same amount of medium was added. Every testing drug was set up for three parallel wells, and also three control wells with only testing drugs (without cell) were set up. Negative control groups were medium containing 0.5% DMSO. After the plate was incubated in an incubator for 48 h, 10 μL of 5 mg/mL MTT was added into each well, and then the plate was placed for 3 h at 37° C. 100 μL of ternary solution (5% SDS, 10 mM HCl, 5% isopropanol) was added into each well, and the plate was kept at 37° C. overnight. The absorbance (OD) was measured at 595 nm/620 nm. The EC50 values were calculated by using Prism Graphpad statistical software.

For the next series, the system named is Bel-7402 cells. Description: EC50 on proliferation of Bel7402 cells (SRB, 48 h). The format is cell-based. As to conditions: Homo sapiens, read-out: Bel7402 EC50 (nmol). Here is the method:
as §2
Testing method for ED50 values on the human Be17402ce11: After the cells were incubated with the addition of the drugs for 48 h, the plates were taken out. 50 μL of pre-cooled 500 g/L trichloroacetic acid was added into each well. The plates were kept in 4° C. refrigerator for 1 h after standing for 5 min, taken out, washed with deionized water for 5 times, and dried in the air. After the plates were completely dried, 100 μL of 0.4% SRB (formulated in 1% acetic acid) was added into each well. Following staining for 20 min, the staining solution was discarded, and the residue was washed with 1% acetic acid for 5 times to remove the uncombined dye. After being dried in the air, the residue was dissolved in 150 μL of 10 mmol/L unbuffered
Tris basic solution (pH=10.5), and oscillated in an oscillator for 5 min. The absorbance of each well at 490 nm was measured with TECAN enzyme mark instrument. The cells in background control plates were treated in the same way for measuring OD490. The EC50 values were calculated by using Prism Graphpad statistical software.

As for `NS(=O)(=O)CCSC(=S)NCc1ccco1` [Compound 5, 2-sulfamoylethyl(furan-2-ylmethyl)dithiocarbamate], the inhibition at 10 µM in the series with HL-60 human leukaemia was 17.3%; in series [1] it was 17.2%; in series [2] it was 17.5%; in series [3] it was 31.6%.
For the compound `N#CCCSC(=S)NCc1ccc(Oc2ccccc2)nc1` [Compound 27, 2-cyanoethyl[(6-phenoxypyridin-3-yl)methyl]dithiocarbamate], the concentration giving a half-maximal response (EC50) (in general, the midpoint of the concentration-response curve) stood at 0.000548 µM in series [4] and 0.0489 µM with Bel-7402 cells.
On to `N#CCCSC(=S)NC(c1ccccc1)c1cccnc1` (stereo not drawn) [Compound 31, 2-cyanoethyl[phenyl(pyridin-3-yl)methyl]dithiocarbamate], for which the melting point (in general, the temperature, or range, at which the solid turns liquid) lay within 118 to 120 °C. The EC50 in series [4] was 0.0047 µM. Moreover, the EC50 in the series with Bel-7402 cells is 0.235 µM.
For `COc1ccc(CNC(=S)SCCC#N)cn1` [Compound 33, 2-cyanoethyl[(6-methoxypyridin-3-yl)methyl]dithiocarbamate], in that order: 90 to 92 °C, 0.000813 µM and 0.109 µM.
The matching figures for `N#CCCSC(=S)NCc1cnccn1` [Compound 39, 2-cyanoethyl(pyrazin-2-ylmethyl)dithiocarbamate]: 96 to 99 °C, more than 1 µM and more than 1 µM.
The compound `Cc1cc(C)c(CNC(=S)SCCC#N)cn1` [Compound 22, 2-cyanoethyl[(4,6-dimethylpyridin-3-yl)methyl]dithiocarbamate] displayed a melting point of 138 to 142 °C. Further, in series [4], the EC50 turned out to be 0.00172 µM. The EC50 in the series on Bel-7402 cells amounted to 0.0234 µM.
The matching figures for `N#CCCSC(=S)NCc1nnc(-c2ccccc2)o1` [Compound 40, 2-cyanoethyl[(5-phenyl-1,3,4-oxadiazol-2-yl)methyl]dithiocarbamate]: 148 to 152 °C, 0.0142 µM and 0.0257 µM.
Consider `N#CCCSC(=S)Nc1cccnc1` [Compound 30, 2-cyanoethyl pyridin-3-yldithiocarbamate], for which the EC50 in series [4] was determined as 0.0807 µM; with Bel-7402 cells it was 0.286 µM.
As for `OB(O)CCSC(=S)NCc1ccco1` [Compound 6, 2-boronoethyl(furan-2-ylmethyl)dithiocarbamate], the inhibition at 10 µM in the series with HL-60 human leukaemia was 0.06%; in series [1], 14.5%; in series [2] it was 2.9%; in series [3], 1.68%.
For `N#CCCSC(=S)NCCCc1cccnc1` [Compound 42, 2-cyanoethyl[3-(pyridin-3-yl)propyl]dithiocarbamate], the melting point was 81 to 83 °C. Further, the EC50 in series [4] was 0.00482 µM. Moreover, in the series on Bel-7402 cells, the half-maximal effective concentration (EC50) came to 0.00348 µM.
As for `CC(NC(=S)SCCC#N)c1cccnc1` (stereo not drawn) [Compound 32, 2-cyanoethyl[1-(pyridin-3-yl)ethyl]dithiocarbamate], the EC50 was found to be 0.00328 µM in series [4] and 0.0648 µM in the series with Bel-7402 cells.
As to `N#CCCSC(=S)NCc1cnc2ccccc2c1` [Compound 18, 2-cyanoethyl(quinolin-3-ylmethyl)dithiocarbamate], the melting point was 120 to 122 °C. For the same compound, in series [4], the concentration giving a half-maximal response (EC50) was 0.00518 µM. Besides, the 50% effective concentration (EC50) in the series with Bel-7402 cells worked out at 0.327 µM.
Compound `COc1cncc(CNC(=S)SCCC#N)c1` [Compound 23, 2-cyanoethyl[(5-methoxypyridin-3-yl)methyl]dithiocarbamate] displayed a melting point of 86 to 90 °C. For the same compound, in series [4], the 50% effective concentration (EC50) turned out to be 0.000557 µM. In addition, the half-maximal effective concentration (EC50) with Bel-7402 cells stood at 0.0103 µM.
`N#CCCSC(=S)NCc1cncc(Br)c1` [Compound 24, 2-cyanoethyl[(5-bromopyridin-3-yl)methyl]dithiocarbamate] returned a melting point of 102 to 108 °C. In addition, in series [4], the EC50 came to 0.00491 µM. Besides, the EC50 in the series on Bel-7402 cells was found to be 0.0205 µM.
Compound `N#CCCSC(=S)NCc1cnc(N2CCOCC2)nc1` [Compound 41, 2-cyanoethyl[(2-morpholinopyrimidin-5-yl)methyl]dithiocarbamate] came in with a melting point of 151 to 154 °C. Besides, in series [4], the concentration for a half-maximal effect (EC50) was found to be 0.00503 µM. Further, in the series on Bel-7402 cells, the EC50 was 0.0224 µM.
For `CN1CCOC2C=C(CNC(=S)SCCC#N)C=NC21` (stereo not drawn) [Compound 26, 2-cyanoethyl[(4-methyl-3,4,4a,8a-tetrahydro-2/4-pyrido[3,2-b][1 ,4]oxazin-7-yl)-methyl]dithiocarbamate], in that order: 117 to 118 °C, 0.0822 µM and 0.0964 µM.
The matching figures for `COC(=O)c1ccc(CNC(=S)SCCC#N)cn1` [Compound 21, 2-cyanoethyl[(6-methoxycarbonylpyridin-3-yl)methyl]dithiocarbamate]: 106 to 112 °C, 0.00693 µM and 0.116 µM.
Take `Cc1c(CNC(=S)SCCC#N)cnn1-c1ccccc1` [Compound 35, 2-cyanoethyl[(5-methyl-1-phenyl-1H-pyrazol-4-yl)methyl]dithiocarbamate]: the EC50 in series [4] stood at 0.00605 µM; in the series on Bel-7402 cells, 0.0249 µM.
The compound `N#CCCSC(=S)NCc1nnc(-c2ccccc2)s1` [Compound 45, 2-cyanoethyl[(5-phenyl-1,3,4-thiadiazol-2-yl)methyl]dithiocarbamate] gave a melting point of 156 to 158 °C. The EC50 in series [4] came out at 0.0118 µM. Besides, in the series with Bel-7402 cells, the EC50 worked out at 0.0186 µM.
The matching figures for `N#CCCSC(=S)NCc1nccs1` [Compound 38, 2-cyanoethyl(thiazol-2-ylmethyl)dithiocarbamate]: 76 to 78 °C, 0.109 µM and 0.296 µM.
The matching figures for `Cc1nc(-c2ccccc2)oc1CNC(=S)SCCC#N` [Compound 34, 2-cyanoethyl[(4-methyl-2-phenyloxazol-5-yl)methyl]dithiocarbamate]: 221 to 224 °C, 0.00788 µM and 0.018 µM.
Take `Cc1cc(CNC(=S)SCCC#N)n(C)n1` [Compound 37, 2-cyanoethyl[(1,3-dimethyl-1H-pyrazol-5-yl)methyl]dithiocarbamate]: the EC50 in series [4] was 0.00417 µM; in the series with Bel-7402 cells, 0.00426 µM.
As for `COc1ncccc1CNC(=S)SCCC#N` [Compound 20, 2-cyanoethyl[(2-methoxypyridin-3-yl)methyl]dithiocarbamate], the melting point was in the range of 88 to 92 °C. Besides, the EC50 in series [4] is 0.0008 µM. The EC50 in the series on Bel-7402 cells stood at 0.00767 µM.
Regarding `N#CCCSC(=S)NCc1ccncc1` [Compound 28, 2-cyanoethyl(pyridin-4-ylmethyl)dithiocarbamate], the values for the concentration giving a half-maximal response (EC50) (in series [4]; in the series on Bel-7402 cells) were 0.0565 µM and 0.0105 µM, respectively.
For the compound `CN(Cc1cccnc1)C(=S)SCCC#N` [Compound 29, 2-cyanoethyl N-methyl-(pyridin-3-ylmethyl)dithiocarbamate], the EC50 in series [4] is 0.134 µM; with Bel-7402 cells, 0.0022 µM.
Take `N#CCCSC(=S)NCCc1cccnc1` [Compound 19, 2-cyanoethyl[2-(pyridin-3-yl)ethyl]dithiocarbamate]: the EC50 in series [4] amounted to 0.000796 µM; in the series on Bel-7402 cells it was 0.0187 µM.
In turn, `N#CCCSC(=S)NCc1ccc(-c2ccco2)nc1` [Compound 25, 2-cyanoethyl{[6-(furan-2-yl)pyridin-3-yl]methyl}dithiocarbamate] displayed a melting point of 118 to 120 °C. For the same compound, the EC50 in series [4] was found to be 0.00478 µM. Moreover, in the series with Bel-7402 cells, the EC50 is 0.0211 µM.
`N#CCCSC(=S)NCc1cncnc1` [Compound 36, 2-cyanoethyl(pyrimidin-5-ylmethyl)dithiocarbamate] came in with a melting point of 168 to 171 °C.
In the case of `CC(C)(C)C(=O)Nc1ccncc1CNC(=S)SCCC#N` [Compound 17, 2-cyanoethyl[(4-pivalamidopyridin-3-yl)methyl]dithiocarbamate], the melting point was 122 to 124 °C. Moreover, the EC50 in series [4] was determined as 0.000473 µM. The half-maximal effective concentration (EC50) with Bel-7402 cells came out at 0.0323 µM.
On to `N#CCCSC(=S)NCc1ccc[nH]1` [Compound 46, 2-cyanoethyl[(1H-pyrrol-2-yl)methyl]dithiocarbamate], for which the EC50 came to 0.283 µM in series [4] and 0.227 µM in the series with Bel-7402 cells.
